Where two headings read alike, the source gives them in different places.
Experiments:
Ovine COX-1 = target: T1, Ovine COX-1 (Ovis aries, UniProt P05979); test: COX-1 oxygenation of arachidonic acid, oxygen electrode; assay type: biochemical; conditions: for COX-1 activity (% of control): 10 µM AA, initial activity 10-30 s, mean ± s.e.m., n = 3; for inhibition at 300 µM: 300 µM compound
T1 construct: purchased Cayman Chemical Co. 60100
T1 sequence (P05979 25-600): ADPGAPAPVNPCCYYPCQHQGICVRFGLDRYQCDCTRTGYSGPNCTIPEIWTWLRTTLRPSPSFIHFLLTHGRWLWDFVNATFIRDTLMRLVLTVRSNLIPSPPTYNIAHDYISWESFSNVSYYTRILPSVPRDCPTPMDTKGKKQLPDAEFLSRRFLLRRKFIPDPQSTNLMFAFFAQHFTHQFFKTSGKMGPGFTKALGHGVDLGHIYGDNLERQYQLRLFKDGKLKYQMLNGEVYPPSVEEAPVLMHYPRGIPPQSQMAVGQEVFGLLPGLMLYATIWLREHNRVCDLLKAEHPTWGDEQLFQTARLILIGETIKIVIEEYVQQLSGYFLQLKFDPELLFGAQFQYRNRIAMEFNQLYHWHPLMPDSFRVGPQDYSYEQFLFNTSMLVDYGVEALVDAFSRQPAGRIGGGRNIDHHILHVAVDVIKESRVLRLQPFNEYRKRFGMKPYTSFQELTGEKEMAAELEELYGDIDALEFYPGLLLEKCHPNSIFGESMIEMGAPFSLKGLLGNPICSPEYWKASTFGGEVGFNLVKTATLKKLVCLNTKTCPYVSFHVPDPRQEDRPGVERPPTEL
Protocol: The assay was performed according to Meade et al. with minor modifications using an oxygen electrode chamber with integral stirring (Oxygraph System, Hansatech Instruments, King’s Lynn, U.K.). The electrode was calibrated to ambient temperature and air pressure. Samples were prepared in 0.1 M Tris-HCl buffer pH 7.4 containing 1 µM haematin, 2 mM phenol, 5 mM EDTA, 10 µM substrate (AA or 2-AG) (final assay volume was 2 ml). After addition of test substance dissolved in DMSO (final assay concentration 1%) a baseline was established for 5 min before initiation of reaction by addition of 200 units COX-1 or COX-2. Change in oxygen consumption was monitored for approximately 5 min.
(§1) FAAH inhibition was calculated using log(inhibitor) vs. response with variable slope (four parameters) algorithm in the GraphPad Prism computer program (GraphPad Software Inc., San Diego, CA. USA). […] The two curves were compared by Akaike’s informative criteria and the best fit was chosen. Initial COX activities were calculated as the change in oxygen tension between 10 and 30 seconds after addition of enzyme.

rat brain FAAH = target: T2, rat brain FAAH (Rattus norvegicus, UniProt P97612); test: FAAH hydrolysis of [3H]AEA in rat brain homogenates; assay type: biochemical; conditions: 0.5 µM AEA
T2 construct: FAAH activity was quantified by measuring hydrolysis of tritium labelled AEA in rat brain homogenates; from tissue; host or cells: rat brain (minus cerebella), Wistar or Sprague-Dawley, washed membrane pellets
T2 sequence (P97612 1-579): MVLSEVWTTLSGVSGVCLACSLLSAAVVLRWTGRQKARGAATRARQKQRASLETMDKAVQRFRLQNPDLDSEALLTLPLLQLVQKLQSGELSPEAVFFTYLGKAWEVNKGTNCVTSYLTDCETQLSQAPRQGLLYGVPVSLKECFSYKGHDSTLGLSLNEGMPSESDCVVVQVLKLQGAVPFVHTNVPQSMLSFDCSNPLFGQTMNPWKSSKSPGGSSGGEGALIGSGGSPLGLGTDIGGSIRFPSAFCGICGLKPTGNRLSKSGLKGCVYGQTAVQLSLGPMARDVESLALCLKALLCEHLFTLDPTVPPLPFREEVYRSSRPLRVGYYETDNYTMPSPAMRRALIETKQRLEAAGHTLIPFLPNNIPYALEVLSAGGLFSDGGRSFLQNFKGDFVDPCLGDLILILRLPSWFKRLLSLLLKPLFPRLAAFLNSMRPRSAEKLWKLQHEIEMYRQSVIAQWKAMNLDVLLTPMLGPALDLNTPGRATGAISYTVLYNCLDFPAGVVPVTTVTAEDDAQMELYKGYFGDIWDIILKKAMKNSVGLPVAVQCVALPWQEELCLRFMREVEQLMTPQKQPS
Protocol: Brains (minus cerebella) from adult Wistar or Sprague-Dawley stored at −80°C were thawed, weighed and homogenized in cold buffer (20 mM HEPES, 1 mM MgCl2 pH 7.0). Homogenates were centrifuged at 35,000 g at 4°C for 20 min and the pellet was resuspended in homogenization buffer (repeated twice) before being incubated at 37°C for 15 min to degrade any endogenous substrate that might interfere with the FAAH assay. Following centrifugation, the pellets were resuspended in cold buffer (50 mM Tris-HCl, 1 mM EDTA, 3 mM MgCl2, pH 7.4). The protein concentration of each homogenates was determined according to the Bradford assay after which the samples were frozen in aliquots at −80°C until used for FAAH assay. Ethical permission for the animal experiments was obtained from the local animal research ethical committee (Umeå Ethical Committee for Animal Research, Umeå, Sweden).
The assay was performed according to Boldrup et al.. Homogenates (1 µg protein per assay) diluted in 10 mM Tris-HCl, 1 mM EDTA, pH 7.4 or pH 5.1 were mixed with test substance dissolved in DMSO (total concentration in assay 5%) at an ambient temperature of 4°C. Reactions were initiated by addition of AEA-[^3H] (assay concentration 0.5 µM) in 10 mM Tris-HCl, 1 mM EDTA, pH 7.4 containing 10 mg ml^−1 fatty acid-free bovine serum and incubation at 37°C which was allowed to proceed for 10 min. […] Blank samples contained buffer instead of homogenate and DMSO (5%). The assay volume of each sample was 200 µl. The pH values given in the text were determined by measurement at 37°C of scaled-up mixtures of homogenization and assay buffers. The reaction was terminated by addition of 400 µl activated charcoal (80 µl activated charcoal +320 µl 0.5 M HCl) and placement of samples on ice. Samples were kept in room temperature for 45–60 min before being centrifuged at 2500 rpm for 10 min. Aliquots (200 µl) of the supernatant was analyzed for tritium content by liquid scintillation with quench correction.
as §1

[1] = read-out: inhibition of COX-1-catalysed oxygenation of arachidonic acid
[2] = pH 6.0, read-out: IC50, inhibition of [3H]AEA hydrolysis (converted)
[3] = pH 6.0, read-out: pI50, inhibition of [3H]AEA hydrolysis (converted)
[4] = pH 7.3, read-out: IC50, inhibition of [3H]AEA hydrolysis (converted)
[5] = pH 7.3, read-out: pI50, inhibition of [3H]AEA hydrolysis (converted)

COX-1 activity (% of control) (Ovine COX-1; 100 µM NSAID)	COX-1 activity (% of control) (Ovine COX-1; 300 µM NSAID)	inhibition at 300 µM (Ovine COX-1; [1])	COX-1 activity (% of control) (Ovine COX-1; 1000 µM NSAID)	IC50 (rat brain FAAH; [2])	IC50 (rat brain FAAH; [3])	IC50 (rat brain FAAH; [4])	IC50 (rat brain FAAH; [5])	inhibition at 100 µM (Ovine COX-1; 100 µM compound, read-out: inhibition of COX-1-catalysed oxygenation of arachidonic acid)	inhibition at 1000 µM (Ovine COX-1; 1000 µM compound, read-out: inhibition of COX-1-catalysed oxygenation of arachidonic acid)	inhibition at 1000 µM (rat brain FAAH; read-out: % inhibition of [3H]AEA hydrolysis @ 1000 µM, pH 7.3, 1000 µM compound)	SMILES
81±16 % of control	97±10 % of control	3%	68±15 % of control	200 µM	200 µM	990 µM	977 µM	–	–	–	CC(CO)Cc1ccc(C(C)C(=O)O)cc1 (stereo not shown) [3′-OH-Ibuprofen, 2-[4-(3-hydroxy-2-methylpropyl)phenyl]propionic acid]
97±31 % of control	72±20 % of control	28%	6±6 % of control	84 µM	85.1 µM	310 µM	316 µM	3%	94%	–	CC(C(=O)O)c1ccc(-c2ccc(O)cc2)c(F)c1 (stereo not shown) [4′-OH-Flurbiprofen]
102±17 % of control	91±5 % of control	9%	95±3 % of control	380 µM	380 µM	–	–	–	–	15 ± 7%	CC(C(=O)O)c1ccc(CC(C)(C)O)cc1 (stereo not shown) [2′-OH-Ibuprofen, 2-[4-(2-hydroxy-2-methylpropyl)phenyl]propionic acid]

From publication PMC4111603 (PLoS ONE, 2014)
